Assay results from patent publication US12486298B2, “Fucosyltransferase specific inhibition using fucose mimetics” (THE FLORIDA INTERNATIONAL UNIVERSITY BOARD OF TRUSTEES, priority 2020, dated 2025).
“Also recorded” adds a separate entry of the source.

How the values were obtained:
[1] = molecular target: T1, fucosyltransferase VII (FTVII) (Homo sapiens, UniProt Q11130); test: FTVII exofucosylation of RPMI-8402 cells, sLe^x by flow cytometry; format: cell-based
T1 sequence (Q11130 37-342 limits assumed): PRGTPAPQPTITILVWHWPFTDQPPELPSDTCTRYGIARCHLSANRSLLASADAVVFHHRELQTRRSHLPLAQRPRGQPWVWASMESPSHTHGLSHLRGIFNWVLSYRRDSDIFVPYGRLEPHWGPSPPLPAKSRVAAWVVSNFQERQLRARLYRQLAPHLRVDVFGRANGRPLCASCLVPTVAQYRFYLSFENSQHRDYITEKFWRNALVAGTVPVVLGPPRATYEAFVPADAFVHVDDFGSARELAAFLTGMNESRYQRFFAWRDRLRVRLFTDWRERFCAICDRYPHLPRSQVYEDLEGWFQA
Procedure: A Canto II (BD Biosciences) flow cytometer was utilized for flow cytometry and the data acquired was analyzed using FlowJo Software (Treestar). Cells were stained using antibodies specific to sLe^X (Alexa-Fluor 488 Mouse Anti-Human CD15s (BD Biosciences)), or Le^X (APC anti-human CD15 (SSEA-1) Antibody (BioLegend)).
Cells of the RPMI-8402 cell line and MSC cell line were treated with either 0.3 ug of fucosyltransferase VI (FTVI), 2.7 ug of fucosyltransferase VII (FTVII), 1.0 ug fucosyltransferase IX (FTIX) or buffer-only at 37° C. for 60 minutes. All reactions contained at 1×10^6 cells/30 ul in HBSS with 10 mM Hepes, 0.1% Human Serum Albumin, and 1.0 mM GDP fucose (GDP-Fuc) (Carbosynth) and the appropriate fucosytransferase. Then, mimetic 1 was added to each of the treatment groups in molar equivalents with respect to GDP-Fuc with each of the fucosytransferases. The treatment groups were as follows: 1:1 GDP-Fuc to mimetic 1 (i.e., 1.0 mM GDP-Fuc and 1.0 mM mimetic), 1:2 GDP-Fuc to mimetic 1 (i.e., 1.0 mM GDP-Fuc and 2.0 mM mimetic), or preincubated in presence of FT with a 2.0 mM solution of the mimetic 1 for 45 minutes followed by addition of a 1.0 mM solution of GDP-Fuc for 1 hour. Concentrations of the various FTs were utilized that would maximize the MFI to allow the detection of the efficacy of mimetic 1 to inhibit the various enzymes.
Exofucosylation is a technique whereby a pertinent FT together with GDP-Fuc is placed in a cell suspension to stereoselectively install fucose on pertinent acceptor cell surface glycan(s). For the case of α-1,3-FTs, this approach provides the ability to pinpoint the effect(s) of mimetic addition on creation of fucosylated glycans Le^x and sLe^x, while keeping the rest of the cell's biological functions and its viability intact. Specifically, this study focused on three α-1,3-FTs that can create sLe^x and Le^x determinants: FTVII, FTIX, and FTVI. To assess enzymatic activity, two cell types were utilized, the human lymphoblastic leukemia cell line RPMI-8402 and human mesenchymal stem cells (MSCs).
Mimetic 1 (FIG. 1) was tested as an inhibitor of FT-mediated exofucosylation on these cells and the extent of fucosylation was monitored using antibodies that detect the creation of the relevant fucosylated epitopes, i.e., sLe^x or Le^x. Cells were treated directly with reaction buffer containing the relevant FTs together with 1.0 mM GDP-Fuc and cells untreated with FTs (UT) were used as reference reaction negative control (FIGS. 2A, 2B, 2C, 3, 4A and 4B). […]
Moreover, a pre-incubation protocol was also analyzed, wherein the cell suspension was pre-treated with FTVII and a 2.0 mM solution of mimetic 1 followed by addition of 1.0 mM solution of GDP-Fuc (Pre).

E-selectin bearing HUVEC = test: Parallel plate flow chamber: exofucosylated RPMI-8402 cells on TNFα-stimulated HUVEC under shear; format: cell-based, human; settings: for number of interacting RPMI-8402 cells on HUVEC: shear 0.5-8 dynes/cm^2
Procedure: Human umbilical vein endothelial cells (HUVEC, Lonza) were cultured in Endothelial Cell Growth Media (R&D Systems) in Bioflux microfluidic chambers that had been previously coated with 250 ug/ml fibronectin (BD Biosciences). Then 4 hours prior to rolling assay, cells were activated with 40 ng/ml TNFα (R&D Systems). Different cell subsets, based on exofucoslylation/mimetic conditions, were then infused into the chamber at a concentration of 2×10^6/ml and shear stress was applied from 0.5-8 dynes/cm^2. Then RPMI-8402 subsets were loaded into chambers containing monolayers of E-selectin bearing HUVECs with an initial shear rate of 0.5 dyne/cm^2, with stepwise increments in the shear rate up to 8 dynes/cm^2. The number of tethering/interacting RPMI-8402 cells on HUVEC were quantified at each shear rate and averaged across three different fields of view.
As sLe^x is the primary ligand for E-selectin which is induced on endothelial cells by inflammatory cytokine, e.g., TNFα the biological impacts of mimetic 1's inhibition of sLe^x binding to E-selectin under hemodynamic shear was evaluated. To this end, RPMI-8402 cells were left untreated or exofucosylated with 1.0 mM GDP-Fuc, 1.0 mM GDP-Fuc and 2.0 mM mimetic 1 or preincubated with FTVI and 2.0 mM mimetic 1 for 45 min followed by addition of 1.0 mM GDP-Fuc for 1 h and the presence of sLe^x determined by flow cytometry (FIGS. 6A and 6B). The RPMI-8402 cells treated as outlined above were then loaded in a parallel plate flow chamber seeded with monolayers of human umbilical vein endothelial cells (HUVEC) that had been stimulated with TNFα (FIG. 6C). The RPMI cells were introduced under defined fluid shear conditions to determine inhibition.

Structure (SMILES): CC1OC2Oc3ccc(CC(=O)O)cc3SC2C(O)C1O (stereo not shown) [mimetic 1]
- inhibition of FTVII-driven sLe^x expression ([1]; RPMI-8402 cells, 1.0 mM GDP-Fuc with 1.0 mM or 2.0 mM mimetic 1): able to inhibit FTVII-driven sLe^x expression
- extent of inhibition, FTVII compared with FTVI ([1]; at 2.0 mM mimetic 1, 1.0 mM GDP-Fuc): slightly higher extent of inhibition on FTVII over FTVI
- inhibition of FTVII sLe^x production after pre-incubation ([1]; pre-incubation of FTVII with 2.0 mM mimetic 1 for 45 minutes, then 1.0 mM GDP-Fuc for 1 hour): significant inhibition of sLe^x production; also recorded: inhibited more completely
- concentration of highest inhibition against FTVII ([1]; titration of mimetic 1, 1.0 mM GDP-Fuc, RPMI-8402 cells, bell-shaped curve): 2.0 mM
- number of interacting RPMI-8402 cells on HUVEC (E-selectin bearing HUVEC; exofucosylated with FTVI, 1.0 mM GDP-Fuc and 2.0 mM mimetic 1): reduced the number of interacting cells
- ability of cells to adhere to HUVEC (E-selectin bearing HUVEC; physiologically relevant shear conditions): reduced the ability of cells to adhere to HUVEC
- number of interacting RPMI-8402 cells on HUVEC (E-selectin bearing HUVEC; preincubation with FTVI and 2.0 mM mimetic 1 for 45 min, then 1.0 mM GDP-Fuc for 1 h): reduced the number of interacting cells
